According to US5153352A, “Process for preparation of intermediates of carbocyclic nucleoside analogs” (priority 1990, dated 1992):
In brackets after ≈: the same amount, converted by molar mass.

Legend:
[1] = test system: Vero cells; details: monkey
[2] = test system: Human Immunodificiency Virus (HIV-1); test: HIV-1 antigen inhibition in H9 cells; format: cell-based, HIV-1 (HTLV-IIIB); details: Human immunodeficiency virus 1, HIV-1, H9 cells; for IC50: HIV antigen levels
Experimental: Uninfected H9 cells at 4×10^5 viable cells/ml were infected with approximately 100 viral infectious units (ifu) for 2 hrs at 37° C. The viral infectious dose (ifu) was determined by the tissue culture infectious dose (TCID50) method for each stock of HIV-1 (HTLV-IIIB) and HIV-2. Cells were washed three times to remove residual virus, then resuspended in RPMI-1640 growth medium containing test compound at various concentrations, then transferred to 24 well tissue culture plates and grown at 5% CO2 at 37° C. Infected cells in media containing no drug were run simultaneously as a control. Aliquots of culture supernatants were removed at 4, 6 and 10 days and monitored for HIV antigen levels by the Abbott HIV 1 antigen enzyme immunoassay (HIVAG-1). Cell viability was also determined at these time points and cells were refed with media containing test compound (except for control wells). Anti-HIV activity is reported as the concentration of compound causing a 50% inhibition (IC50) in HIV antigen levels versus infected cells without test compound.

[3] = test system: Human Immunodificiency Virus (HIV-1); test: inhibition of HIV-1 replication in human PBMC (RT activity); format: cell-based; details: Human immunodeficiency virus 1; HIV-1, PBMC, median-effect method
Experimental: Human peripheral blood mononuclear cells (PBMC) from healthy HIV-1 seronegative and hepatitis B virus seroneqative donors were isolated by Ficoll-Hypague discontinuous gradient centrifugation at 1,000×g for 30 minutes, washed twice in phosphate buffered saline (pH 7.2; PBS), and pelleted at 300×g for 10 minutes. Before infection, the cells were stimulated by phytohemagglutinin (PHA) at a concentration of 16.7 ug/ml for three days in RPMI 1640 medium supplemented with 15% heat-inactivated fetal calf serum, 1.5 mM L-glutamine, penicillin (100 U/ml), streptomycin (100 ug/ml) and 4 mM sodium bicarbonate buffer.
Uninfected PHA stimulated human PBMC were uniformly distributed among 25 cm^2 flasks to give a 5 ml suspension containing about 2×10^6 cells/ml. Suitable dilutions of virus were added to infect the cultures. The mean reverse transcriptase (RT) activity of the inocula was 60,000 dpm RT activity/10^6 cells. […]
The RT assay was perfromed in 96-well microtiter plates as described by Spira, et al. (J. Clin. Microbiol. 25 97 (1987)). […] Four ml of scintillation fluid (Econofluor, NEN Research Products, Boston, Ma.) were added and the amount of radioactivity in each sample was determined using a Packard Tri Carb liquid scintillation analyzer (model 2,000CA). […]

[4] = test system: Varicella-Zoster Virus; test: microbe, parasite or virus in culture; format: cell-based, Varicella-Zoster virus (clinical isolate DM625); details: Human alphaherpesvirus 3, Fibroblast, 120 h
[5] = test system: mice; test: toxicity in uninfected mice (Herpesvirus 1 study); format: in vivo, mouse; details: 7 doses
Experimental: Four-week-old female outbred Swiss mice (CD 1, VAF+, Charles River Labs) were housed 5 per Microisolator® cage. Feed and water were supplied ad libitum. Fifteen mice were randomly assigned to each of the following treatment groups:
Test compounds were diluted in 0.4% carboxymethylcellulose (CMC) prepared in phosphate buffered saline (PBS) at concentrations consistent with dosing at 0.1 ml per 10 q of body weight. Compounds were administered subcutaneously once daily for a total of 7 doses. Five mice in each treatment group served as uninfected toxicity controls. The remaining ten mice in each group were challenged intraperitoneally with an LD90 dose of the twelfth in vivo passage of Herpesvirus 1 (strain 123). Virus challenge was administered two hours after the first dose of compound was given. Mortality was monitored daily for 21 days. The mortality rates, average day of death, geometric mean time to death and virus rating were calculated for each treatment group.

[6] = test system: HSV-1(123); test: plaque reduction, HSV-1(123) in Vero cells; format: cell-based, Herpes simplex virus type 1; details: Human alphaherpesvirus 1, plaque reduction 50%, read-out: MIC50
Experimental: (§1) After the adsorption period, the infected cell monolayers were treated in duplicate with serial dilutions of the test compound. Duplicate cell controls containing medium alone and virus controls containing medium and virus were run simultaneously with the test compound. […] Plaques visible to the unaided eye were counted and the mean number of plaques in the duplicate wells for each compound concentration tested and for the untreated, virus infected controls were determined.

[7] = test system: HSV-2; test: plaque reduction, HSV-2 in Vero cells; format: cell-based, Herpes simplex virus type 2; details: Human alphaherpesvirus 2; HSV-2, Vero, plaque reduction 50%; read-out: MIC50
Experimental: as §1

How did the “MTC (minimum drug concentration causing any cytotoxicity)” value [1] turn out when Nc1nc2c(ncn2C2CC(CO)C2CO)c(=O)[nH]1 (stereo not drawn) [Example 1I, 9-(2',3'-Bis(hydroxymethyl)cyclobutyl)guanine] was run?
Its value is 320 µg/mL.

And the inhibition at 0.312 µM ([2]; 0.312 uM)?
Its inhibition at 0.312 µM is 0%.

And the inhibition at 0.625 µM [2]?
The inhibition at 0.625 µM was 19%.

What about the inhibition at 1.25 µM ([2]; 1.25 uM) of the same compound?
Its inhibition at 1.25 µM is 63%.

And the inhibition at 2.5 µM [2]?
Its inhibition at 2.5 µM is 75%.

And the inhibition at 10 µM [2]?
Its inhibition at 10 µM is 88%.

What about the IC50 [2] of the same compound?
The IC50 was 1.1 µM.

And the EC50 [3]?
Its EC50 is 0.98 µM.

And the EC50 ([4]; VZV plaque formation, human foreskin fibroblasts, read-out: MIC50)?
Its EC50 is 1.4 µg/mL (≈ 5.28 µM).

And the inhibition at 0.1 µg/mL ([4]; VZV, 0.1 ug/ml, read-out: Plaque Reduction)?
Its inhibition at 0.1 µg/mL is 11.5%.

What about the inhibition at 0.32 µg/mL ([4]; VZV, 0.32 ug/ml, read-out: Plaque Reduction) of the same compound?
The inhibition at 0.32 µg/mL was 18%.

And the inhibition at 1 µg/mL ([4]; VZV, 1.0 ug/ml, read-out: Plaque Reduction)?
Its inhibition at 1 µg/mL is 47.1%.

What about the inhibition at 3.2 µg/mL ([4]; VZV, 3.2 ug/ml, read-out: Plaque Reduction) of the same compound?
Its inhibition at 3.2 µg/mL is 97.7%.

What about the inhibition at 10 µg/mL ([4]; VZV, 10 ug/ml, read-out: Plaque Reduction) of the same compound?
The inhibition at 10 µg/mL was 100%.

What about the inhibition at 32 µg/mL ([4]; VZV, 32 ug/ml, read-out: Plaque Reduction) of the same compound?
The inhibition at 32 µg/mL was 100%.

What about the inhibition at 100 µg/mL ([4]; read-out: Plaque Reduction) of the same compound?
The inhibition at 100 µg/mL was 100%.

What about the “No. Dead/No. Uninfected” value ([5]; 3.2 mg/kg s.c. once daily) of the same compound?
The value was 0/5.

What about the “No. Dead/No. Uninfected” value ([5]; 10 mg/kg s.c. once daily) of the same compound?
Its value is 0/5.

What about the “No. Dead/No. Uninfected” value ([5]; 32 mg/kg s.c. once daily) of the same compound?
The value was 0/3.

And the EC50 [6]?
Its EC50 is 1 µg/mL (≈ 3.77 µM).

And the EC50 [7]?
Its EC50 is 1 µg/mL (≈ 3.77 µM).

Nc1ncnc2c1ncn2C1CC(CO)C1CO (stereo not drawn) [Example 4C, 9-(2',3'-Bis(hydroxymethyl)cyclobutyl)adenine] was tested. Which inhibition at 0.625 µM [2] did it give?
The inhibition at 0.625 µM was 0%.

What about the inhibition at 2.5 µM [2] of the same compound?
The inhibition at 2.5 µM was 62%.

What about the inhibition at 5 µM ([2]; 5 uM) of the same compound?
The inhibition at 5 µM was 96%.

And the inhibition at 10 µM [2]?
The inhibition at 10 µM was 98%.

What about the IC50 [2] of the same compound?
The IC50 was 2.1 µM.

And the EC50 [3]?
Its EC50 is 0.96 µM.
